“And” between values parts separate entries of the source, which are not always exact repeats. Equal entries are not always repeated. Where two headings read alike, the source gives them in different places.
Experiments:
[1] = target: T1, recombinant human ghrelin receptor (HEK293/GRLN) (Homo sapiens, UniProt Q92847); experiment: Ghrelin inverse agonist potency (EC50) with IP-1 (IP-One HTRF) assay; format: cell-based; details: IP-1 assay
T1 construct: expressed in transfected cells
Method in brief: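 IP-1 accumulation was measured by HTRF (IP1-d2/Tb-cryptate, 620/665 nm read after 1 hour at room temperature) following 1 hour of compound treatment at 37° C. Cells were HEK293 stably expressing human ghrelin receptor, plated a day earlier on Matrigel. Inverse agonist potency was reported as EC50.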

[2] = target: T2, GHSR-1a (HEK293/GHSR1a cell line) (Homo sapiens, UniProt Q92847); experiment: Ghrelin antagonist potency (IC50) with calcium FLIPR assay, ghrelin 10 nM; format: cell-based
T2 construct: expressed in transfected cells; host or cells: HEK293/GHSR1a cell line
T2 sequence (Q92847 whole entry): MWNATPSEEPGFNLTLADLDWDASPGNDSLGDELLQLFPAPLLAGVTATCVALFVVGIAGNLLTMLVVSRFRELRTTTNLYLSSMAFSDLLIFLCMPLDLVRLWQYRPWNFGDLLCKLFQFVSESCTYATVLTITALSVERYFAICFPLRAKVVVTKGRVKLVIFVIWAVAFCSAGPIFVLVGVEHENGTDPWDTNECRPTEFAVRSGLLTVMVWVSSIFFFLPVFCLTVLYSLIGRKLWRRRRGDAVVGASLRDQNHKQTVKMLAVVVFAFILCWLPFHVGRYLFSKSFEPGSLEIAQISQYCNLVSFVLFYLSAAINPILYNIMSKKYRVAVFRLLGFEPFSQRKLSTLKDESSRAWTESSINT
Method in brief: (§1)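 In this assay, compound alone assesses agonism, while compound co-added with ghrelin at 10 nM assesses antagonism. In both modes the calcium-dye signal is tracked for 2 min from t=20 sec.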

[3] = Metabolic stability in human liver microsomes; format: in vitro ADME
Method in brief: (§2)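 Loss of parent over time in microsomal incubations at 37 °C with NADPH regeneration, sampled up to 90 min and read by LC-MS/MS.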

[4] = Metabolic stability in mouse liver microsomes; format: in vitro ADME
Method in brief: as §2

[5] = Animal PK study in mouse via i.v., p.o. and s.c. administration; format: in vivo
Description: All treated animals received a single dose of a test compound (either through i.v., p.o., or s.c. administration) according to the regimen shown in the following table:
For oral dose groups, appropriate amount of test compound was prepared in the following formulation carrier: 1% DMSO (increase to 5% maximum if necessary) and 0.5% Methycellulose. Each mouse or rat received by oral gavage 10 mL/kg of the formulation mixture.
For i.v. and s.c dose groups, appropriate amount of test compound was dissolved in 1% DMSO (increase to 5% maximum if necessary), 99% of 20% HP-β-Cyclodextron (w/v). The pH was adjusted accordingly. Each mouse or rat received 5 mL/kg of the formulation mixture. i.v. dose was administered by tail vein injection. Subcutaneous injection was administered over the shoulders, into the loose skin over the neck. At designated time points (e.g., i.v. and s.c.: 0.083, 0.25, 0.5, 1, 2, 4, 8 and 24 hrs; p.o.: 0.25, 0.5, 1, 2, 4, 8 and 24 hrs), systemic samples of blood (50 μL in mouse or 500 μL in rat) were collected by puncture (submandibular vein in mouse or jugular vein in rat) into vacutainers containing EDTA-K2 as anti-coagulant. The blood was centrifuged at 6000 rpm for 8 min at 4° C. to obtain plasma. All plasma samples were stored at −20° C. All plasma samples were added to acetonitrile for protein precipitation and quantitatively analyzed by LC-MS/MS.

[6] = Animal PK study in rat via i.v., p.o. and s.c. administration; format: in vivo; details: for half-life: plasma, ip, read-out: PK T1/2 i.p.; for half-life / PK CL i.p. / PK Vd i.p.: rat (R), i.p.
[7] = target: T2, GHSR-1a (HEK293/GHSR1a cell line); experiment: Ghrelin agonist potency (EC50) with calcium FLIPR assay; format: cell-based
Method in brief: as §1

[8] = inverse agonist potency, read-out: EC50 (Activity)
[9] = ghrelin antagonist potency, read-out: IC50 (Activity)
[10] = ghrelin inverse agonist potency, read-out: Activity EC50
[11] = ghrelin agonist potency, read-out: Activity EC50/EMax
[12] = ghrelin antagonist potency, read-out: Activity IC50

T1 sequence (Q92847 whole entry): as above

| Compound | EC50 [1, 8] | IC50 [2, 9] [nM] | Metabolic Stability Study H = human [3] | Metabolic Stability Study M = mouse [4] | PK F [5] | PK CLiv ([5]; i.v.) [mL/min/kg] | PK Vdiv ([5]; i.v.) [L/kg] | PK t1/2iv ([5]; i.v.) | PK CLpo ([5]; p.o.) [mL/min/kg] | PK Vdpo ([5]; p.o.) | PK t1/2po ([5]; p.o.) | further results |
| --- | --- | --- | --- | --- | --- | --- | --- | --- | --- | --- | --- | --- |
| CC(NC(=O)Nc1ccc(S(=O)(=O)Cc2ccc3c(c2)CN(CC2CC2)C3)cc1)c1ccccc1 (centres unmarked) [H1220, 1-(4-(((2-(cyclopropylmethyl)isoindolin-5-yl)methyl)sulfonyl)phenyl)-3-(1-phenylethyl)urea] | 30.4 nM | 3.61 | 183.8 µL/min/mg | 248 µL/min/mg | 4.71% | 50.8 | 3.08 | 0.7 h | 1030 | 78.7 L/kg | 0.89 h |  |
| C[C@H](NC(=O)Nc1ccc(S(=O)(=O)Cc2ccc3c(c2)CCNC3)cc1)c1cccc(Cl)c1Cl [H1027, (S)-1-(1-(2,3-dichlorophenyl)ethyl)-3-(4-(((1,2,3,4-tetrahydroisoquinolin-6-yl)methyl)sulfonyl)phenyl)urea] | 1.62 nM | 2.5 | H = <10 M = <10 R = not reported D = not reported μL/min/mg | H = <10 M = <10 R = not reported D = not reported μL/min/mg | F = 0.72 (M); % | 11.8 | 1.64 | 1.61 (M); h | 1428 | 345 (M); L/Kg | 2.79 (M); h | PK F ([6]; rat): 57.14 (R) %; PK CLiv ([6]; rat, i.v.): 205.7 mL/min/kg; PK Vdiv ([6]; rat, i.v.): 168.2 L/kg; PK t1/2iv ([6]; rat, i.v.): 10.2 (R) h; PK CLpo ([6]; rat, p.o.): 416.3 mL/min/kg; PK Vdpo ([6]; rat, p.o.): 80.4 (R) L/Kg; PK t1/2po ([6]; rat, p.o.): 2.21 (R) h |
| CC(NC(=O)Nc1ccc(S(=O)(=O)Cc2ccc3c(c2)CNC3)cc1)c1cccc2ccccc12.Cl (centres unmarked) [H1149, 1-(4-((isoindolin-5-ylmethyl)sulfonyl)phenyl)-3-(1-(naphthalen-1-yl)ethyl)urea] | 1.69 nM and 2.41 nM | 4.8 | 21.1 µL/min/mg | 24.3 µL/min/mg | 0.86% | 16.3 | 1.22 | 0.87 h | 1792 | 272 L/kg | 1.75 h |  |
| CC(NC(=O)Nc1ccc(S(=O)(=O)Cc2ccc3c(c2)CN(C)C3)cc1O)c1ccccc1 (centres unmarked) [H1448, 1-(2-hydroxy-4-(((2-methylisoindolin-5-yl)methyl)sulfonyl)phenyl)-3-(1-phenylethyl)urea] |  |  | 28 µL/min/mg | 20.8 µL/min/mg | 1.90% |  |  |  |  |  |  | EC50 ([1]; HEK293/GRLN, read-out: Activity EC50 (ghrelin inverse agonist potency)): 3.3 nM; EC50 ([7]; HEK293/GHSR1a, read-out: Activity EC50/EMax: EC50 (ghrelin agonist potency)): > 30000 nM; IC50 ([2]; HEK293/GHSR1a, ghrelin 10 nM, read-out: Activity IC50 (ghrelin antagonist potency)): 30.3 nM; PK CL p.o. ([5]; p.o.): 4243 mL/min/kg; PK Vd p.o. ([5]; p.o.): 242.2 L/kg; Vd ([5]; plasma, iv, 5 mg/kg): 9.26 L/kg; clearance ([5]; plasma, iv, 5 mg/kg, i.v., read-out: PK CL i.v.): 80.5 mL/min/kg; half-life ([5]; plasma, iv, 5 mg/kg, i.v., read-out: PK t1/2 i.v.): 1.33 h; half-life ([5]; plasma, po, 10 mg/kg, p.o., read-out: PK t1/2 p.o.): 0.66 h |
| O=C(NCc1ccccc1Cl)Nc1ccc(S(=O)(=O)Cc2ccc3c(c2)CCNC3)cc1 [H1039, 1-(2-chlorobenzyl)-3-(4-(((1,2,3,4-tetrahydroisoquinolin-6-yl)methyl)sulfonyl)phenyl)urea] | 33.3 nM | 113 | < 10 µL/min/mg | 13.5 µL/min/mg | 0.6% | 42.5 | 11.7 | 3.18 h | 5573 | 898 L/kg | 1.86 h |  |
| COc1cc(NC(=O)NC(C)c2ccccc2)ccc1S(=O)(=O)Cc1ccc2c(c1)CNC2 (centres unmarked) [H1461, 1-(4-((isoindolin-5-ylmethyl)sulfonyl)-3-methoxyphenyl)-3-(1-phenylethyl)urea] |  |  | 22.0 µL/min/mg | < 10 µL/min/mg |  |  |  |  |  |  |  | EC50 [1, 10]: 3.5 nM; EC50 [7, 11]: > 30000 nM; IC50 [2, 12]: 7.9 nM; half-life [6]: 2.61 h; PK CL i.p. [6]: 38.3 mL/min/kg; PK Vd i.p. [6]: 8.64 L/kg |
| COc1ccc([C@H](C)NC(=O)Nc2ccc(S(=O)(=O)Cc3ccc4c(c3)CCN(C(C)=O)C4)cc2)c(Cl)c1Cl [H1025, (S)-1-(4-(((2-acetyl-1,2,3,4-tetrahydroisoquinolin-6-yl)methyl)sulfonyl)phenyl)-3-(1-(2,3-dichloro-4-methoxyphenyl)ethyl)urea] |  | 21400 | 92.4 µL/min/mg | 159.5 µL/min/mg | 5.92% | 30.7 | 2.86 | 1.08 h | 514.8 | 94.83 L/kg | 1.45 h |  |
| CC(c1ccccc1)N(O)C(=O)Nc1ccc(S(=O)(=O)Cc2ccc3c(c2)CNC3)cc1 (centres unmarked) [H1472, 1-hydroxy-3-(4-((isoindolin-5-ylmethyl)sulfonyl)phenyl)-1-(1-phenylethyl)urea] |  |  |  |  |  |  |  |  |  |  |  | EC50 [1, 10]: 3.25 nM; EC50 [7, 11]: > 30000 nM; IC50 [2, 12]: 6 nM; half-life [6]: 2.43 h; PK CL i.p. [6]: 36.5 mL/min/kg; PK Vd i.p. [6]: 7.71 L/kg |
| C[C@H](NC(=O)Nc1ccc(S(=O)(=O)Cc2ccc(CC(C)(C)N(C)C)cc2)cc1)c1cccc(Cl)c1Cl [H1010, (S)-1-(1-(2,3-dichlorophenyl)ethyl)-3-(4-((4-(2-(dimethylamino)-2-methylpropyl)benzyl)sulfonyl)phenyl)urea] | 15 nM | 42 | H = 40.5 M = 40.5 R = not reported D = not reported μL/min/mg | H = 40.5 M = 40.5 R = not reported D = not reported μL/min/mg | 3.09% | 55.7 | 1.39 | 1.39 h | 1803 | 169 L/kg | 1.08 h |  |

— patent US10501479B2, “Benzenesulfonyl-asymmetric ureas and medical uses thereof” (HELSINN HEALTHCARE SA, priority 2016, dated 2019)
